Laboratory results published in US7365096B2, “Methods for selectively inhibiting Janus tyrosine kinase 3 (Jak3)” (Board of Regents, The University of Texas System, priority 2002, dated 2008).
“Also recorded” adds a separate entry of the source.

Tests used:
[1] = system: Stat5a/b; experiment: IL-2 activated Stat5a/b tyrosine phosphorylation in YT cells (Western blot); format: cell-based, human; conditions: phospho-Western blots
Method: (§1) Solubilization of membrane proteins, immunoprecipitation, and Western blot analysis. Frozen cell pellets were thawed on ice and solubilized in 1% TX-100 lysis buffer (10^8 cells/ml) and clarified by centrifugation, as previously described.^16 For human T-cells, supernates were incubated rotating end over end for 2 hours at 4° C. with either 5 μl/ml polyclonal rabbit antisera raised against peptides derived from the unique COOH-termini of Jak3 (amino acid [a.a.] 1104-1124), carboxyl termini of human Stat5a (a.a. 775-794) or Stat5b (a.a. 777-787).^26 Ab and immunoprecipitated proteins were captured by incubation for 30 minutes with Protein A-Sepharose beads (Pharmacia, Piscataway, N.J.), sedimented for purification, and eluted by boiling in 2×SDS-sample buffer (20% Glycerol, 10% 2-Mercaptoethanol, 4.6% SDS, 0.004% Bromophenol blue in 0.125 M Tris pH 6.8) for 4 minutes. For phosphoMapk assays, approximately 25 μg of total cell lysate was dissociated in SDS-sample buffer and separated on 10% (all others on 7.5%) SDS-PAGE under reducing conditions. […]

[2] = target: T1, Jak3 (Homo sapiens, UniProt P52333); experiment: IL-2 activated Jak3 tyrosine phosphorylation in YT cells (Western blot); format: cell-based; parameters: endogenous in cells; host or cells: human YT cells; conditions: 1-100 μM, 2 hours, 100 nM IL-2
T1 sequence (P52333 1-1124): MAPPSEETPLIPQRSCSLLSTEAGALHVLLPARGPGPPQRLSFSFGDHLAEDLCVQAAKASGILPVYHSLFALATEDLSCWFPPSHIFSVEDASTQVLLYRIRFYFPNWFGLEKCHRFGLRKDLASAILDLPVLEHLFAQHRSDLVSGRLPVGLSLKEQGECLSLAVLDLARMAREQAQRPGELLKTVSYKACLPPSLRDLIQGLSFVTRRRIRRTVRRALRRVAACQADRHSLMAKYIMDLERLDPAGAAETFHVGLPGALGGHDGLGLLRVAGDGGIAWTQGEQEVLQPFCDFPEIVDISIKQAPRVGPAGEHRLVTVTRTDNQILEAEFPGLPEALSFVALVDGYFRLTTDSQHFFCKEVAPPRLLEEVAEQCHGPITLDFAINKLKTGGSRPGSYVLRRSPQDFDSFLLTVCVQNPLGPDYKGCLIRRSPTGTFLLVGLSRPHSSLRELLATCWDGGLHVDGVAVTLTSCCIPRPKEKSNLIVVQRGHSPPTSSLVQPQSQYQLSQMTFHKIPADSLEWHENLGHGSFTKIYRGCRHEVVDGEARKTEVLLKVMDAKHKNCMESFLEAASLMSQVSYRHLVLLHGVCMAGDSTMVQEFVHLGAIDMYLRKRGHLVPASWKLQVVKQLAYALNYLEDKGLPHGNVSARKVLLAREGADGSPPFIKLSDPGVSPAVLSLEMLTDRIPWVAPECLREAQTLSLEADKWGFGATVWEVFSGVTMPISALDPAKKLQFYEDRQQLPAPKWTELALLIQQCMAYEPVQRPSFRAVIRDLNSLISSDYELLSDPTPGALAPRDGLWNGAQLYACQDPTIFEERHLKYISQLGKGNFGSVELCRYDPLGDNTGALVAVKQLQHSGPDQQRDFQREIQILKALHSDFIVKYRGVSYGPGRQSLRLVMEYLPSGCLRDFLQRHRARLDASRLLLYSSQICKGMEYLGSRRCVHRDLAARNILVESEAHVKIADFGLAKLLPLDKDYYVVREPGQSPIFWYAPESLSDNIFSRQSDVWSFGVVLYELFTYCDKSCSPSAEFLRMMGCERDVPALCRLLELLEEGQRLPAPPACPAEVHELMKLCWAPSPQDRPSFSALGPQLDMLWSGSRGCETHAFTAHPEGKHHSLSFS
Method: as §1

`CN(C)CC1CCCCCCCCCC(CN(C)C)C1=O` (mixture of isomers) [649641P (NC1153)] was tested, and the “tyrosine phosphorylation of Stat5a/b” value [1] was “inhibited tyrosine phosphorylation” and the “tyrosine phosphorylation of Jak3” value [2] was “inhibited in a dose-dependent fashion; also recorded: inhibited tyrosine phosphorylation”.
